Measurements from patent US9381200B2, “Nitrogen containing compounds” (WOCKHARDT LIMITED, priority 2011, dated 2016).
Converted amounts (≈) assume the structure as drawn. Where two headings read alike, the source gives them in different places.

Key:
Format in all cases: cell-based
[1] = system: E. coli 7 MP; assay: Antibacterial activity (MIC), agar dilution per CLSI; conditions: Escherichia coli, Table 3, E. coli 7 MP expressing ESBL, read-out: MIC
Outline: (§1)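 Agar dilution MIC per CLSI: overnight cultures diluted and inoculated onto agar containing doubling dilutions of compound. Growth/no growth read after 16-20 h at 35±2° C in ambient air. Strains express ESBL.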

[2] = system: E. coli NCTC 13351; assay: as above; conditions: Escherichia coli, NCTC13351, Table 3, E. coli NCTC 13351 expressing ESBL, 16-20 hours, 35±2° C., read-out: MIC
Outline: as §1

[3] = system: E. coli M 50; assay: as above; conditions: Escherichia coli, read-out: MIC
Outline: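 Susceptibility is determined by the CLSI agar dilution procedure, in which appropriately diluted overnight cultures are applied to compound-containing agar prepared as doubling dilutions. After incubation (35±2° C., ambient air, 16-20 hours), growth or its absence defines the MIC, given in mcg/ml.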

[4] = system: P. aeruginosa Ps 32; assay: Antibacterial activity (MIC) against MDR Gram negative strains; conditions: Pseudomonas aeruginosa, PS32; Table 5; P. aeruginosa Ps 32; read-out: MIC
Description: (§2) The biological activity of representative compounds according to the invention against various bacterial strains was investigated. In a typical study, overnight grown bacterial cultures were diluted appropriately and inoculated on the agar media containing doubling dilutions of the test compounds. Observation for growth or no growth was performed after 16-20 hours of incubation at 35±2° C. in ambient air. The overall procedure was performed as per Clinical and Laboratory Standards Institute (CLSI) recommendations (Clinical and Laboratory Standards Institute (CLSI), Performance Standards for Antimicrobial Susceptibility Testing, 20th Informational Supplement, M 100-S20, Volume 30, No. 1, 2010).
(§3) The activities are expressed as MICs (mcg/ml).

[5] = system: E. Coli M 3; assay: as above; conditions: Escherichia coli; Table 5; E. Coli M 3, Class B ESBL, MDR; read-out: MIC
Description: as §2, §3

[6] = system: K penumoniae H 525; assay: as above; conditions: Table 4; K penumoniae H 525, KPC ESBL, MDR; read-out: MIC
Description: as §2, §3

[7] = system: K penumoniae H 523; assay: as above; conditions: Table 4; K penumoniae H 523, KPC ESBL, MDR; read-out: MIC
Description: as §2, §3

[8] = system: E. Coli B 89; assay: as above; conditions: Escherichia coli; Table 4; E. Coli B 89, Class C ESBL, MDR; read-out: MIC
Description: as §2, §3

[9] = system: E. Coli H 484; assay: as above; conditions: Escherichia coli; Table 4; E. Coli H 484, Class C ESBL, MDR; read-out: MIC
Description: as §2, §3

[10] = system: P. aeruginosa Ps 21; assay: as above; conditions: Pseudomonas aeruginosa, PS21; Table 5; P. aeruginosa Ps 21; read-out: MIC
Description: as §2, §3

[11] = system: E. Coli W 13353; assay: as above; conditions: Escherichia coli; Table 4; E. Coli W 13353, Class A ESBL, MDR; read-out: MIC
Description: as §2, §3

[12] = system: P. aeruginosa ATCC 27853; assay: as above; conditions: Pseudomonas aeruginosa, ATCC27853; Table 5; P. aeruginosa ATCC 27853; read-out: MIC
Description: as §2, §3

[13] = system: K. penumoniae S 48; assay: as above; conditions: Table 5; K. penumoniae S 48, Class B ESBL, MDR; read-out: MIC
Description: as §2, §3

[14] = system: E. Coli W 13352; assay: as above; conditions: Escherichia coli; Table 4; E. Coli W 13352, Class A ESBL, MDR; read-out: MIC
Description: as §2, §3

[15] = system: E. Coli M 44; assay: as above; conditions: Escherichia coli; Table 5; E. Coli M 44, Class B ESBL, MDR; read-out: MIC
Description: as §2, §3

[16] = system: K penumoniae H 521; assay: as above; conditions: Table 4; K penumoniae H 521, KPC ESBL, MDR; read-out: MIC
Description: as §2, §3

[17] = system: E. Coli W 13351; assay: as above; conditions: Escherichia coli; Table 4; E. Coli W 13351, Class A ESBL, MDR; read-out: MIC
Description: as §2, §3

[18] = system: A. baumannii G-165; assay: Antibacterial activity of sulbactam / Cefepime combinations with a compound of the invention (MIC); conditions: Acinetobacter baumannii, G165; Table 8; A. baumannii G-165; Cefepime alone or with sulbactam and/or compound at fixed concentrations as named in the composition; read-out: MIC of Cefepime
Description: as §2

[19] = system: A. baumannii S-334; assay: as above; conditions: Acinetobacter baumannii, S334; Table 8; A. baumannii S-334; Cefepime alone or with sulbactam and/or compound at fixed concentrations as named in the composition; read-out: MIC of Cefepime
Description: as §2

[20] = system: A. baumannii 1460648; assay: as above; conditions: Acinetobacter baumannii; Table 8; A. baumannii 1460648; Cefepime alone or with sulbactam and/or compound at fixed concentrations as named in the composition; read-out: MIC of Cefepime
Description: as §2

[21] = system: A. baumannii J-143; assay: as above; conditions: Acinetobacter baumannii, J143; Table 8; A. baumannii J-143; Cefepime alone or with sulbactam and/or compound at fixed concentrations as named in the composition; read-out: MIC of Cefepime
Description: as §2

[22] = M50, Table 3, E. coli M 50 expressing ESBL, agar dilution
[23] = M50, Table 4, E. Coli M 50, Class C ESBL, MDR

SMILES | MIC [1] [µg/mL] | MIC [2] [µg/mL] | MIC [3, 22] [µg/mL] | MIC [3, 23] [µg/mL] | MIC [4] [µg/mL] | MIC [5] [µg/mL] | MIC [6] [µg/mL] | MIC [7] [µg/mL] | MIC [8] [µg/mL] | MIC [9] [µg/mL] | MIC [10] [µg/mL] | MIC [11] [µg/mL] | MIC [12] [µg/mL] | MIC [13] [µg/mL] | MIC [14] [µg/mL] | MIC [15] [µg/mL] | MIC [16] [µg/mL] | MIC [17] [µg/mL] | other results
NCC(=O)NNC(=O)[C@H]1CC[C@@H]2CN1C(=O)N2OS(=O)(=O)O (relative stereo) [Example 7, trans-sulfuric acid mono-[2-(N′-(amino-acetyl)-hydrazinocarbonyl)-7-oxo-1,6-diaza-bicyclo[3.2.1]oct-6-yl]ester] | 4 (≈ 11.9 µM) | 2 (≈ 5.93 µM) | 2 (≈ 5.93 µM) | 2 (≈ 5.93 µM) | > 32 | 4 (≈ 11.9 µM) | 2 (≈ 5.93 µM) | 1 (≈ 2.96 µM) | 4 (≈ 11.9 µM) | 4 (≈ 11.9 µM) | > 32 | 0.5 (≈ 1.48 µM) | > 32 | 4 (≈ 11.9 µM) | 1 (≈ 2.96 µM) | 2 (≈ 5.93 µM) | 2 (≈ 5.93 µM) | 2 (≈ 5.93 µM) | 
NCCCC(=O)NNC(=O)[C@H]1CC[C@@H]2CN1C(=O)N2OS(=O)(=O)O (relative stereo) [Example 9, trans-sulfuric acid mono-[2-(N′-(4-amino-butanoyl)-hydrazinocarbonyl)-7-oxo-1,6-diaza-bicyclo[3.2.1]oct-6-yl]ester] | 4 (≈ 10.9 µM) | 1 (≈ 2.74 µM) | 2 (≈ 5.47 µM) | 1 (≈ 2.74 µM) | 16 (≈ 43.8 µM) | 2 (≈ 5.47 µM) | 0.5 (≈ 1.37 µM) | 0.5 (≈ 1.37 µM) | 1 (≈ 2.74 µM) | 2 (≈ 5.47 µM) | 8 (≈ 21.9 µM) | 1 (≈ 2.74 µM) | 8 (≈ 21.9 µM) | 1 (≈ 2.74 µM) | 1 (≈ 2.74 µM) | 0.5 (≈ 1.37 µM) | 1 (≈ 2.74 µM) | 1 (≈ 2.74 µM) | 
O=C(CN1CCNCC1)NNC(=O)[C@H]1CC[C@@H]2CN1C(=O)N2OS(=O)(=O)O (relative stereo) [Example 19, trans-sulfuric acid mono-[2-(N′-(piperazin-4-yl-acetyl)-hydrazinocarbonyl)-7-oxo-1,6-diaza-bicyclo[3.2.1]oct-6-yl]ester] | 2 (≈ 4.92 µM) | 1 (≈ 2.46 µM) | 1 (≈ 2.46 µM) | 2 (≈ 4.92 µM) | > 32 | 1 (≈ 2.46 µM) | 1 (≈ 2.46 µM) | 1 (≈ 2.46 µM) | 1 (≈ 2.46 µM) | 4 (≈ 9.84 µM) | > 32 | 2 (≈ 4.92 µM) | 32 (≈ 78.7 µM) | 4 (≈ 9.84 µM) | 2 (≈ 4.92 µM) | 1 (≈ 2.46 µM) | 1 (≈ 2.46 µM) | 2 (≈ 4.92 µM) | 
CO/N=C(\C(=O)N[C@@H]1C(=O)N2C(C(=O)[O-])=C(C[N+]3(C)CCCC3)CS[C@H]12)c1csc(N)n1 [Cefepime] |  |  |  |  |  |  |  |  |  |  |  |  |  |  |  |  |  |  | MIC [18]: > 32 µg/mL; MIC [19]: 32 µg/mL; MIC [20]: > 32 µg/mL; MIC [21]: > 32 µg/mL
N#CCC(=O)NNC(=O)[C@@H]1CC[C@@H]2CN1C(=O)N2OS(=O)(=O)[O-].[Na+] [Example 43, Sodium salt of trans-sulfuric acid mono-[2-(N′-(cyano-acetyl)-hydrazinocarbonyl)-7-oxo-1,6-diaza-bicyclo[3.2.1]oct-6-yl]ester] | 8 | 1 | 2 | 1 | > 32 | 4 | 1 | 1 | 1 | 8 | > 32 | 1 | > 32 | 1 | 1 | 0.5 | 2 | 1 | 

The remaining compounds from weak to strong by MIC [1], led by results:

MIC [1] [µg/mL] | MIC [2] [µg/mL] | MIC [3, 22] [µg/mL] | MIC [3, 23] [µg/mL] | MIC [4] [µg/mL] | MIC [5] [µg/mL] | MIC [6] [µg/mL] | MIC [7] [µg/mL] | MIC [8] [µg/mL] | MIC [9] [µg/mL] | MIC [10] [µg/mL] | MIC [11] [µg/mL] | MIC [12] [µg/mL] | MIC [13] [µg/mL] | MIC [14] [µg/mL] | MIC [15] [µg/mL] | MIC [16] [µg/mL] | MIC [17] [µg/mL] | SMILES | other results
2 (≈ 5.69 µM) | 1 (≈ 2.85 µM) | 1 (≈ 2.85 µM) | 1 (≈ 2.85 µM) | 8 (≈ 22.8 µM) | 4 (≈ 11.4 µM) | 1 (≈ 2.85 µM) | 0.5 (≈ 1.42 µM) | 1 (≈ 2.85 µM) | 2 (≈ 5.69 µM) | 16 (≈ 45.5 µM) | 1 (≈ 2.85 µM) | 8 (≈ 22.8 µM) | 1 (≈ 2.85 µM) | 1 (≈ 2.85 µM) | 0.5 (≈ 1.42 µM) | 1 (≈ 2.85 µM) | 1 (≈ 2.85 µM) | NCCC(=O)NNC(=O)[C@H]1CC[C@@H]2CN1C(=O)N2OS(=O)(=O)O (relative stereo) [Example 8, trans-sulfuric acid mono-[2-(N′-(3-amino-propioyl)-hydrazinocarbonyl)-7-oxo-1,6-diaza-bicyclo[3.2.1]oct-6-yl]ester] | 
2 (≈ 5.11 µM) | 1 (≈ 2.55 µM) | 1 (≈ 2.55 µM) | 1 (≈ 2.55 µM) | 16 (≈ 40.9 µM) | 1 (≈ 2.55 µM) | 1 (≈ 2.55 µM) | 0.5 (≈ 1.28 µM) | 1 (≈ 2.55 µM) | 4 (≈ 10.2 µM) | 32 (≈ 81.8 µM) | 1 (≈ 2.55 µM) | 32 (≈ 81.8 µM) | 1 (≈ 2.55 µM) | 2 (≈ 5.11 µM) | 1 (≈ 2.55 µM) | 1 (≈ 2.55 µM) | 1 (≈ 2.55 µM) | O=C(NNC(=O)[C@H]1CC[C@@H]2CN1C(=O)N2OS(=O)(=O)O)C1CCNCC1 (relative stereo) [Example 13, trans-sulfuric acid mono-[2-(N′-(piperidin-4-carbonyl)-hydrazinocarbonyl)-7-oxo-1,6-diaza-bicyclo[3.2.1]oct-6-yl]ester] | 
0.5 (≈ 1.23 µM) | 0.25 (≈ 0.617 µM) | 0.25 (≈ 0.617 µM) | 1 (≈ 2.47 µM) | > 32 | 1 (≈ 2.47 µM) | 2 (≈ 4.93 µM) | 1 (≈ 2.47 µM) | 0.5 (≈ 1.23 µM) | 1 (≈ 2.47 µM) | > 32 | 0.5 (≈ 1.23 µM) | > 32 | 2 (≈ 4.93 µM) | 0.5 (≈ 1.23 µM) | 0.5 (≈ 1.23 µM) | 1 (≈ 2.47 µM) | 0.25 (≈ 0.617 µM) | O=C(NNC(=O)[C@@H]1CC[C@@H]2CN1C(=O)N2OC(F)(F)C(=O)O)[C@@H]1CCCNC1 [Example 5, trans-difluoro-{7-oxo-2-[N′—((R)-piperidin-3-carbonyl)-hydrazinocarbonyl]-1,6-diaza-bicyclo[3.2.1]-oct-6-yloxy}-acetic acid] | 
0.25 (≈ 0.662 µM) | 0.025 (≈ 0.0662 µM) | 0.25 (≈ 0.662 µM) | 0.5 (≈ 1.32 µM) | 32 (≈ 84.8 µM) | 1 (≈ 2.65 µM) | 0.5 (≈ 1.32 µM) | 0.5 (≈ 1.32 µM) | 0.5 (≈ 1.32 µM) | 2 (≈ 5.3 µM) | 16 (≈ 42.4 µM) | 0.25 (≈ 0.662 µM) | 16 (≈ 42.4 µM) | 2 (≈ 5.3 µM) | 0.5 (≈ 1.32 µM) | 0.25 (≈ 0.662 µM) | 0.5 (≈ 1.32 µM) | 0.5 (≈ 1.32 µM) | O=C(NNC(=O)[C@@H]1CC[C@@H]2CN1C(=O)N2OS(=O)(=O)O)[C@@H]1CCCN1 [Example 1, trans-sulfuric acid mono-[2-(N′—[(S)-pyrrolidin-2-carbonyl]-hydrazinocarbonyl)-7-oxo-1,6-diaza-bicyclo[3.2.1]oct-6-yl]ester] | 
